This note sets out measurements from patent US20220306585A1, “PYRAZOLE DERIVATIVES FOR CONTROLLING ARTHROPODS” (Bayer Animal Health GmbH, priority 2019, published 2022).

A short description of data set [1]: Degradation of prodrugs and release of parent drug in dog plasma. The format is in vitro ADME. To be noted: male, Beagle, dog plasma (EDTA stabilized), 37° C., percent area of prodrug at t0. The procedure:
Measurement of Release of Parent Drug in Dog Plasma 1 mg of the test compound was dissolved in 0.5 mL acetonitrile/dimethylsulfoxide 9:1. For complete dissolution the HPLC vial was shaken and treated with ultrasound. 20 μL of this solution were added to 1 mL of dog plasma (Beagle, male; EDTA stabilized) under vortexing at a temperature of 37° C. Aliquots (100 μL each) were taken at 0.17, 0.5, 1, 1.5, 2 and 4 hours. Each aliquot was transferred to a vial containing 300 μL of acetonitrile/citric acid buffer pH 3 80:20. These solutions were centrifuged at 5000 rpm for 10 minutes. The supernatant was analysed by HPLC (Method 8) to determine the amount of the test compound. In addition, the reaction mixture was analysed by method 9 (HPLC-MS) at the final timepoint. Both decrease of the prodrug concentration and increase of parent drug concentration were monitored. All data is given as percent area of the prodrug at t0.

The test system of data set [2] is Ctenocephalides felis adult. Nature of the data set: Antiparasitic activity after administration to rats: fleas. Format: in vivo. The note with it: 11.97 mg/kg sc, Ctenocephalides felis adult. In short, it runs like this: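 Compounds dissolved in glycerol formal, given i.p. or s.c. to rats, 5 per group. Infestation with 30 D. variabilis nymphs (days −2, 7, 14, 21, 28, 35) and 30 adult C. felis (days −1, 8, 15, 22, 29, 36), with counts on days 2, 9, 16, 23, 30, 37. Percent efficacy compares mean live attached ticks or live fleas with a placebo-treated group.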

Each structure is given as a SMILES string.

`N#CC1(N(COC(=O)/C=C/C(=O)O)C(=O)c2cc(-c3cnn(-c4c(Cl)cc(C(F)(C(F)(F)F)C(F)(F)F)cc4OC(F)(F)F)c3)ccc2Cl)CC1` [Example 13, (2E)-4-{[(2-Chloro-5-{1-[2-chloro-4-(1,1,1,2,3,3,3-heptafluoropropan-2-yl)-6-(trifluoromethoxy)phenyl]-1H-pyrazol-4-yl}benzoyl)(1-cyanocyclopropyl)amino]methoxy}-4-oxobut-2-enoic acid]: the recovery at 0.17 h, 39 µg/mL in data set [1] (0.17 h) worked out at 95%. The recovery at 0.5 h, 39 µg/mL in data set [1] (0.5 h) worked out at 79%. Moreover, in data set [1] (1 h), the recovery at 1 h, 39 µg/mL is 51%. Moreover, the recovery at 1.5 h, 39 µg/mL in data set [1] (1.5 h) stood at 33%. For the same molecule, the recovery at 2 h, 39 µg/mL in data set [1] (2 h) turned out to be 18%. In addition, in data set [1] (4 h), the recovery at 4 h, 39 µg/mL was 0%. Further, the “In-vivo Efficacy SD2” value in data set [2] (study day 2) was found to be 100%. In data set [2] (study day 9), the “In-vivo Efficacy SD9” value is on record as 97%. Also, the “In-vivo Efficacy SD16” value in data set [2] (study day 16) turned out to be 96%. Besides, the “In-vivo Efficacy SD23” value in data set [2] (study day 23) amounted to 79%. For the same molecule, the “In-vivo Efficacy SD30” value in data set [2] (study day 30) was 57%. In addition, the “In-vivo Efficacy SD37” value in data set [2] (study day 37) was found to be 51%.
